Here are results for two compounds from patent US20250134845A1, “Fumaric Acid Esters, Inhalation Administration Methods, Pharmaceutical Uses and Compositions” (Emory University, priority 2022, published 2025).

Assay [1] has as its system IPF lung fibroblasts. As to the kind of experiment: H2O2 production in IPF lung fibroblasts (Amplex Red assay). Conditions: 24 h. The class given is cell-based, human. The method, then:
IPF lung fibroblasts were treated with DMF (1 μM) or vehicle (DMSO) followed by treatment TGF-b (2 ng/ml). H2O2 levels were evaluated at 24 h by Amplex™ Red assay.
Culture supernatant was evaluated for H2O2 levels at 24 h by Amplex™ Red assay.
Since primary mesenchymal cells isolated from IPF lungs represent a heterogeneous population of both fibroblasts and myofibroblasts “(myo)fibroblasts”, the efficacy of DMF was evaluate on both TGF-beta-induced and established profibrogenic phenotypes of these cells. To determine if DMF treatment can inhibit fibrogenic responses induced by TGF-beta, cells were pre-treated with DMF or vehicle followed by treatment with TGF-beta for 24 h.

In assay [2] the test system is IPF lung fibroblasts. As to the kind of experiment: Collagen-1 expression in IPF lung fibroblasts (Western blot, densitometry). The class given is cell-based, human. Conditions: vs vehicle. The text has this:
Since primary mesenchymal cells isolated from IPF lungs represent a heterogeneous population of both fibroblasts and myofibroblasts “(myo)fibroblasts”, the efficacy of DMF was evaluate on both TGF-beta-induced and established profibrogenic phenotypes of these cells. […]
On the technique in general: In western blotting, separated proteins are transferred to a membrane and probed.

Assay [3] concerns aged mice with bleomycin-induced persistent lung fibrosis. As to the kind of experiment: Aging murine model of bleomycin-induced persistent lung fibrosis: reversal of established fibrosis. The format is in vivo, mouse. The note with it: 3-6 weeks post-injury. The method, then:
C57BL/6 aged (18 month) female mice received an intratracheal instillation of bleomycin (0.02875 U/mouse). DMF was administered daily by oral gavage (240 μg/150 μL in sterile PBS/mouse) or intranasal instillation (80 μg/50 μL in sterile PBS/mouse) from 3-6 weeks post-injury. Lung tissue was assessed by hematoxylin and eosin (H&E) staining for histopathology and Masson's trichrome blue staining for collagen. […] At 3 weeks post-bleomycin administration, mice were randomly assigned to one of four treatment groups. Between 3-6 weeks post-injury, DMF or vehicle (sterile PBS) was administered daily by oral gavage (240 μg/dose in 150 μL total volume) (Table 1) using a gavage tube. In parallel, mice were anesthetized using isoflurane and administered DMF or vehicle (sterile PBS) daily by intranasal instillation (80 μg/dose in 50 μL total volume) (Table 1). The control animals received vehicle only. Dosing was based on the solubility of this compound in the vehicle in the total volume used for administration (DMF was dissolved in sterile PBS at 42° C. and sonicated for 50 min). Mice were monitored for body-weight changes and survival. Mice were removed from the study when greater than 20% weight loss was observed compared to pre-surgery (day 0) or lack of responsiveness to touch. At 6 weeks post-injury, mice were sacrificed by CO2 inhalation. This aging model of bleomycin-induced persistent lung fibrosis enables the evaluation of therapeutic agents for their efficacy in reversing age-dependent established fibrosis. […] Using the same injury model and treatment protocol, aged mice were administered DMF or vehicle daily via intranasal delivery from 3-6 weeks post-injury.

The test system of assay [4] is Nrf2. As to the kind of experiment: Lung Nrf2 expression in aged-injured mice (densitometric analysis). The format is in vivo, mouse. The protocol:
Oral-vehicle (n=7); oral-DMF (n=7); intranasal-vehicle (n=4); intranasal-DMF (n=4).
(§1) At 3 weeks post-bleomycin administration, mice were randomly assigned to one of four treatment groups. Between 3-6 weeks post-injury, DMF or vehicle (sterile PBS) was administered daily by oral gavage (240 μg/dose in 150 μL total volume) (Table 1) using a gavage tube. In parallel, mice were anesthetized using isoflurane and administered DMF or vehicle (sterile PBS) daily by intranasal instillation (80 μg/dose in 50 μL total volume) (Table 1). The control animals received vehicle only. Dosing was based on the solubility of this compound in the vehicle in the total volume used for administration (DMF was dissolved in sterile PBS at 42° C. and sonicated for 50 min). Mice were monitored for body-weight changes and survival. Mice were removed from the study when greater than 20% weight loss was observed compared to pre-surgery (day 0) or lack of responsiveness to touch. At 6 weeks post-injury, mice were sacrificed by CO2 inhalation.
(§2) In summary, lung-targeted treatment with DMF via inhaled delivery (as compared to oral delivery) can more effectively rescue local Nrf2 expression levels and promote redox homeostasis in the lungs.

Assay [5] concerns oxidative stress (ROS, oxidized glutathione, lipid peroxidation). As to the kind of experiment: Blood ROS, lung oxidized glutathione and lung lipid peroxidation in aged-injured mice. The format is in vivo, mouse. The note with it: for blood ROS levels: aged-injured mice. The method, then:
Oral-DMF (n=7); intranasal-DMF (n=6).
Oral-vehicle (n=5); oral-DMF (n=5); intranasal-vehicle (n=3); intranasal-DMF (n=4).
Oral-vehicle (n=5); oral-DMF, (n=5); intranasal-vehicle (n=4); intranasal-DMF (n=3).
as §1, §2

Assay [6] relates to IPF lung fibroblasts. The note with it: sulforaphane treatment (Nrf2 activation); cited from earlier work.
Where [7] appears, read: intranasal 80 μg/dose daily, vs vehicle and oral DMF.
[8] abbreviates: oral gavage 240 μg/dose daily, aged mice.
Setting [9] is: intranasal delivery, 80 μg/dose daily, vs vehicle or oral DMF.

Structures are written as SMILES. Structures can show the parent of a compound that is named as a salt.

For `COC(=O)/C=C/C(=O)OC` [DMF, dimethyl fumarate], in assay [1] (DMF 1 μM pre-treatment, then TGF-b 2 ng/ml, vs vehicle (DMSO)), the “TGF-beta-induced production of ROS, specifically H2O2” value is listed as “significantly reduced”. In assay [1] (DMF 1 μM, no TGF-beta, culture supernatant, vs vehicle), the “production of H2O2 (established pro-fibrotic phenotype)” value is recorded as “significantly inhibited”. For the same compound, the “TGF-beta-induced expression of collagen-1” value in assay [2] (DMF 1 μM pre-treatment, then TGF-b 2 ng/ml, 48 h) is “inhibition”. Further, the “production of collagen-1 (established pro-fibrotic phenotype)” value in assay [2] (DMF 1 μM, no TGF-beta, 24 h) is given as “significantly inhibited”. For the same compound, the “resolution of age-dependent established lung fibrosis (histopathology)” value in assay [3] (intranasal 80 μg/dose daily, aged mice) is on record as “resulted in resolution”. Besides, in assay [3] (setting [7]), the “lung collagen deposition (Masson's trichrome)” value is “reduced collagen deposition”, the “lung collagen-1 expression levels” value is “significantly decreased”, the “lung fibronectin expression levels” value is “significantly decreased” and the lung hydroxyproline levels result is on record as “decreased lung hydroxyproline levels”. Besides, in assay [3] (setting [8]), the “lung fibrosis compared with vehicle-treated mice” value is reported as “indistinguishable from vehicle-treated mice” and the “resolution of age-dependent established lung fibrosis” value was “failed to promote the resolution”. In addition, in assay [4] (intranasal delivery, 80 μg/dose daily, aged-injured mice), the “lung Nrf2 expression levels” value is given as “significantly increased”. In addition, the “lung Nrf2 expression levels” value in assay [4] (oral administration, 240 μg/dose daily, aged mice with established fibrosis) was “failed to rescue”. The “blood ROS levels” value in assay [5] (intranasal delivery, 80 μg/dose daily) is given as “did not impact”. In assay [5] (setting [9]), the lung lipid peroxidation entry is “significantly reduced” and the “lung oxidized glutathione levels” value is “significantly reduced”. In addition, the “blood ROS levels” value in assay [5] (oral administration, 240 μg/dose daily) is recorded as “reduced blood ROS levels”.
For `C[S+]([O-])CCCCN=C=S` (stereo not shown) [sulforaphane], in assay [6], the “antioxidant responses in IPF lung fibroblasts” value is given as “restored antioxidant responses” and the “dedifferentiation of IPF myofibroblast” value is recorded as “promoted dedifferentiation”.
